Measurements published in patent US11312723B2, “Pyranopyrazole and pyrazolopyridine immunomodulators for treatment of autoimmune diseases” (The Rockefeller University, priority 2017, dated 2022).

Biological target: Human FXIIa (Homo sapiens (Human), UniProt P00748)
Assay: Factor XIIa (FXIIa) inhibitory activity, chromogenic substrate (Pefachrome XIIa) cleavage
Type: biochemical
Conditions: 10 min pre-incubation, Pefachrome XIIa 400 μM
Method: Factor XIIa (FXIIa) Inhibitory Activity:
In a 96-well clear bottom plate, 80 μl of assay buffer was added to each well. Assay buffer consists of 0.5× Hank's Balanced Salt Solution (Invitrogen), buffered with 25 mM HEPES pH 7.4 (Invitrogen) and 0.5× Tris-buffered saline with Tween-20 0.05% (Santa Cruz Biotechnology). Test compounds were first dissolved in DMSO (Sigma) and then 4 μl were added to test wells containing assay buffer. Serial dilutions using an automated multi-channel pipette were used to generate a concentration range of approximately 1-100 μM. Human FXIIa (Enzyme Research Labs) was diluted in assay buffer to a final concentration of 12.5 nM. 80 μl of this enzyme solution was added to the assay wells. The enzyme/compound mixtures were incubated for 10 minutes at room temperature. Chromogenic substrate (Pefachrome XIIa; Enzyme Research Labs) was added to assay wells at a final concentration of 400 μM. The assay plate was spun for 1 minute at 1500 g and then read at 37° C. in a SpectraMax M2 plate reader (λ=405 nm). Activity was quantified as the rate of change in absorbance, which corresponds to the rate of substrate cleavage. IC50 values were determined as the concentration of inhibitor that produced 50% of the rate of change of control wells without any inhibitor. For compounds with activity <1 μM, the assay was repeated with a lower concentration range, typically from 10-1000 nM.

Sequence of Human FXIIa (P00748 373-615): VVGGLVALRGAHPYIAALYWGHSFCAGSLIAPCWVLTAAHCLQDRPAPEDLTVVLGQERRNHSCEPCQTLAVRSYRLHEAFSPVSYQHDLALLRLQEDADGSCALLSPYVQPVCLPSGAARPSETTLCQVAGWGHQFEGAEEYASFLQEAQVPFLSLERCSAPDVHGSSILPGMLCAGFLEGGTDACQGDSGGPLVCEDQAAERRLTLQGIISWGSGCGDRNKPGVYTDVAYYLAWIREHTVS
Sequence of Human FXIIa (P00748 20-372 partner): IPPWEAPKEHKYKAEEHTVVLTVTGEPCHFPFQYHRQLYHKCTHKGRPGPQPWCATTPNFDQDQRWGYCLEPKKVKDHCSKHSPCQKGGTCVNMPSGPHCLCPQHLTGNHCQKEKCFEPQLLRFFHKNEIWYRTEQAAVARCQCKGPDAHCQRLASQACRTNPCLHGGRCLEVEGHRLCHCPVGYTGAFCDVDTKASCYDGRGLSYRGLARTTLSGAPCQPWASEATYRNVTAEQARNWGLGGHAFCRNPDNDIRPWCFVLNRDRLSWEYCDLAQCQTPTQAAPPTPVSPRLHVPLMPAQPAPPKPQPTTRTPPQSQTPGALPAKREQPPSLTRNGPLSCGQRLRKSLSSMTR

Going from `Cc1cc2c(C(=O)n3nc4c(c3N)CNCC4)cccc2[nH]1` [Example 2, (3-amino-4,5,6,7-tetrahydropyrazolo[4,3-c]pyridin-2-yl)(2-methyl-1H-indol-4-yl)methanone] to `Cc1cc2c(C(=O)n3nc(N)c4c3CN(S(C)(=O)=O)CC4)cccc2[nH]1` [Example 102, (3-amino-6-(methylsulfonyl)-4,5,6,7-tetrahydro-pyrazolo[3,4-c]pyridin-1-yl)(2-methyl-1H-indol-4-yl)methanone], the IC50 rises from 0.06 µM to 1.2 µM (20-fold).

Going from `Cc1cccc2c1NCC[C@H]2C(=O)n1nc2c(c1N)CCNC2` (single isomer, unassigned) [Example 177, (R*)-(3-amino-4,5,6,7-tetrahydro-pyrazolo[3,4-c]pyridin-2-yl)(8-methyl-1,2,3,4-tetrahydro-quinolin-4-yl)methanone] to `Nc1c2c(nn1C(=O)C1CCNc3c(Cl)cccc31)CNCC2` (single isomer, unassigned) [Example 72, (S*)-(3-amino-4,5,6,7-tetrahydropyrazolo[3,4-c]pyridin-2-yl)(8-chloro-1,2,3,4-tetrahydroquinolin-4-yl)methanone], the IC50 falls from 30 µM to 0.07 µM (430-fold). The second is the more potent here.

First: CCc1cccc2c1NCCC2C(=O)n1nc(N)c2c1CN(S(C)(=O)=O)CC2 (centres unmarked) [Example 66, (3-amino-6-(methylsulfonyl)-4,5,6,7-tetrahydropyrazolo[3,4-c]pyridin-1-yl)(8-ethyl-1,2,3,4-tetrahydroquinolin-4-yl)methanone]
Second: CS(=O)(=O)N1CCc2c(N)nn(C(=O)C3CCNc4c(F)cccc43)c2C1 (centres unmarked) [Example 38, (3-amino-6-(methylsulfonyl)-4,5,6,7-tetrahydropyrazolo[3,4-c]pyridin-1-yl)(8-fluoro-1,2,3,4-tetrahydroquinolin-4-yl)methanone]
The IC50 of the first is higher: greater than 100 µM for the first, 70 µM for the second.

Going from `Cc1cccc2c1NCC[C@@H]2C(=O)n1nc2c(c1N)CCN(S(=O)(=O)C1COC1)C2` (single isomer, unassigned) [Example 185, (S*)-(3-amino-6-(oxetan-3-ylsulfonyl)-4,5,6,7-tetrahydro-pyrazolo[3,4-c]pyridin-2-yl)(8-methyl-1,2,3,4-tetrahydro-quinolin-4-yl)methanone] to `Cc1cccc2c1NCC[C@H]2C(=O)n1nc2c(c1N)CCN(S(=O)(=O)C1COC1)C2` (single isomer, unassigned) [Example 186, (R*)-(3-amino-6-(oxetan-3-ylsulfonyl)-4,5,6,7-tetrahydro-pyrazolo[3,4-c]pyridin-2-yl)(8-methyl-1,2,3,4-tetrahydro-quinolin-4-yl)methanone], the IC50 rises from 0.2 µM to 40 µM (200-fold). The first is the more potent here.

Compared with `CCc1cccc2c1NCCC2C(=O)n1nc2c(c1N)CCN(S(C)(=O)=O)C2` (centres unmarked) [Example 65, (3-amino-6-(methylsulfonyl)-4,5,6,7-tetrahydropyrazolo[3,4-c]pyridin-2-yl)(8-ethyl-1,2,3,4-tetrahydroquinolin-4-yl)methanone], `CS(=O)(=O)N1CCc2c(nn(C(=O)C3CCNc4c(Cl)cccc43)c2N)C1` (single isomer, unassigned) [Example 59, (R*)-(3-amino-6-(methylsulfonyl)-4,5,6,7-tetrahydropyrazolo[3,4-c]pyridin-2-yl)(8-chloro-1,2,3,4-tetrahydroquinolin-4-yl)methanone] is 390-fold higher in IC50: 0.09 µM for the first, 35 µM for the second. The first is the more potent here.

Going from `Cc1cccc2c1NCCC2C(=O)n1nc2c(c1N)CCN(S(C)(=O)=O)C2C` (single isomer, unassigned) [Example 79, (3-amino-7-methyl-6-(methylsulfonyl)-4,5,6,7-tetrahydropyrazolo[3,4-c]pyridin-2-yl)(8-methyl-1,2,3,4-tetrahydroquinolin-4-yl)methanone] to `Cc1cccc2c1NCC[C@@H]2C(=O)n1nc2c(c1N)CCN(S(=O)(=O)N(C)C)C2` (single isomer, unassigned) [Example 180, (S*)-3-amino-N,N-dimethyl-2-(8-methyl-1,2,3,4-tetrahydro-quinoline-4-carbonyl)-4,5-dihydro-2H-pyrazolo[3,4-c]pyridine-6(7H)-sulfonamide], the IC50 falls from 3 µM to 0.04 µM (75-fold).

Compared with `COc1ccc2c(c1)C(C(=O)n1nc3c(c1N)CCN(S(C)(=O)=O)C3)CCN2` (centres unmarked) [Example 22, (3-amino-6-(methylsulfonyl)-4,5,6,7-tetrahydropyrazolo[3,4-c]pyridin-2-yl)(6-methoxy-1,2,3,4-tetrahydroquinolin-4-yl)methanone], `CCc1ccc2c(c1)C(C(=O)n1nc3c(c1N)CCN(S(C)(=O)=O)C3)CCN2` (single isomer, unassigned) [Example 32, (S*)-(3-amino-6-(methylsulfonyl)-4,5,6,7-tetrahydropyrazolo[3,4-c]pyridin-2-yl)(6-ethyl-1,2,3,4-tetrahydroquinolin-4-yl)methanone] is 70-fold lower in IC50: 1.4 µM for the first, 0.02 µM for the second. The second is the more potent here.

Compared with `CCN1CCc2c(N)nn(C(=O)C3CCNc4ccc(Cl)cc43)c2C1` (centres unmarked) [Example 162, (3-amino-6-ethyl-4,5,6,7-tetrahydro-pyrazolo[3,4-c]pyridin-1-yl)(6-chloro-1,2,3,4-tetrahydro-quinolin-4-yl)methanone], `CC(C)c1ccc2c(c1)C(C(=O)n1nc(N)c3c1CN(S(C)(=O)=O)CC3)CCN2` (centres unmarked) [Example 46, (3-amino-6-(methylsulfonyl)-4,5,6,7-tetrahydropyrazolo[3,4-c]pyridin-1-yl)(6-isopropyl-1,2,3,4-tetrahydroquinolin-4-yl)methanone] is higher in IC50: 21 µM for the first, greater than 80 µM for the second.

Going from `Cc1cccc2c1NCC[C@@H]2C(=O)n1nc2c(c1N)CCN(S(=O)(=O)C1CCC1)C2` (single isomer, unassigned) [Example 182, (S*)-(3-amino-6-(cyclobutyl-sulfonyl)-4,5,6,7-tetrahydro-pyrazolo[3,4-c]pyridin-2-yl)(8-methyl-1,2,3,4-tetrahydro-quinolin-4-yl)methanone] to `Cc1cccc2c1NCCC2C(=O)n1nc(N)c2c1CN(S(=O)(=O)C1CCC1)CC2` (centres unmarked) [Example 184], the IC50 rises from 0.04 µM to 11 µM (280-fold).

Compared with `COc1cccc2c1NCCC2C(=O)n1nc2c(c1N)CCN(S(C)(=O)=O)C2` (single isomer, unassigned) [Example 64, (R*)-(3-amino-6-(methylsulfonyl)-4,5,6,7-tetrahydropyrazolo[3,4-c]pyridin-2-yl)(8-methoxy-1,2,3,4-tetrahydroquinolin-4-yl)methanone], `COc1cccc2c1NCCC2C(=O)n1nc(N)c2c1CN(S(C)(=O)=O)CC2` (centres unmarked) [Example 62, (3-amino-6-(methylsulfonyl)-4,5,6,7-tetrahydropyrazolo[3,4-c]pyridin-1-yl)(8-methoxy-1,2,3,4-tetrahydroquinolin-4-yl)methanone] is higher in IC50: 35 µM for the first, greater than 65 µM for the second. The first is the more potent here.

Going from `Cc1cccc2c1NCCC2C(=O)n1nc(N)c2c1COCC2` (centres unmarked) [Example 200, (3-amino-4,5-dihydropyrano[3,4-c]pyrazol-1(7H)-yl)(8-methyl-1,2,3,4-tetrahydro-quinolin-4-yl)methanone] to `Cc1cccc2c1NCC[C@@H]2C(=O)n1nc2c(c1N)COCC2` (single isomer, unassigned) [Example 190, (S*)-(3-amino-6,7-dihydropyrano[4,3-c]pyrazol-2(4H)-yl)(8-methyl-1,2,3,4-tetrahydro-quinolin-4-yl)methanone], the IC50 falls from greater than 100 µM to 0.05 µM.

Going from `COC(=O)N1CCc2c(c(N)nn2C(=O)C2CCNc3ccccc32)C1` (centres unmarked) [Example 88, methyl 3-amino-1-(1,2,3,4-tetrahydro-quinoline-4-carbonyl)-6,7-dihydro-1H-pyrazolo[4,3-c]pyridine-5(4H)-carboxylate] to `CN1CCc2nn(C(=O)C3CCNc4ccccc43)c(N)c2C1` (centres unmarked) [Example 86, (3-amino-5-methyl-4,5,6,7-tetrahydro-pyrazolo[4,3-c]pyridin-2-yl)(1,2,3,4-tetrahydro-quinolin-4-yl)methanone], the IC50 falls from 80 µM to 1.25 µM (64-fold). The second is the more potent here.

Compared with `Cc1cc(F)cc2c1NCCC2C(=O)n1nc(N)c2c1CN(S(C)(=O)=O)CC2` (centres unmarked) [Example 52, (3-amino-6-(methylsulfonyl)-4,5,6,7-tetrahydropyrazolo[3,4-c]pyridin-1-yl)(6-fluoro-8-methyl-1,2,3,4-tetrahydroquinolin-4-yl)methanone], `Nc1nn(C(=O)C2CCNc3ccc(F)cc32)c2c1CCN(S(=O)(=O)C(F)F)C2` (centres unmarked) [Example 160, (3-amino-6-(difluoromethyl-sulfonyl)-4,5,6,7-tetrahydro-pyrazolo[3,4-c]pyridin-1-yl)(6-fluoro-1,2,3,4-tetrahydro-quinolin-4-yl)methanone] is 2-fold lower in IC50: 32 µM for the first, 16 µM for the second.

Compared with `Nc1c2c(nn1C(=O)[C@H]1CCNc3c(Cl)cccc31)COCC2` (single isomer, unassigned) [Example 202, (S*)-(3-amino-4,5-dihydropyrano[3,4-c]pyrazol-2(7H)-yl)(8-chloro-1,2,3,4-tetrahydro-quinolin-4-yl)methanone], `CCN1CCc2c(nn(C(=O)[C@@H]3CCNc4c(C)cccc43)c2N)C1` (single isomer, unassigned) [Example 174, (R*)-(3-amino-6-ethyl-4,5,6,7-tetrahydro-pyrazolo[3,4-c]pyridin-2-yl)(8-methyl-1,2,3,4-tetrahydro-quinolin-4-yl)methanone] is 89-fold higher in IC50: 0.09 µM for the first, 8 µM for the second. The first is the more potent here.

In the case of `Cc1cc2c(C(=O)n3nc(N)c4c3CN(Cc3ccccc3)CC4)cccc2[nH]1` [Example 11, (3-amino-6-benzyl-4,5,6,7-tetrahydropyrazolo[3,4-c]pyridin-1-yl)(2-methyl-1H-indol-4-yl)methanone], the IC50 is reported as 50 µM.
